In patent publication US12186283B2, “Bismuth-thiol compositions and methods of use” (Microbion Corporation, priority 2018, dated 2025):

Assays:
E. coli ATCC 25922 = conditions: control strain ATCC 25922 E. coli; per CLSI M100-S24 or provided by Microbion; cited from earlier work
S. aureus ATCC 29213 [1] = conditions: control strain ATCC 29213 S. aureus; per CLSI M100-S24 or provided by Microbion; cited from earlier work
[2] = test system: Burkholderia spp. (B. cepacia complex); assay: MIC against CF isolates (Example 5); assay type: cell-based; conditions: Table 4A
S. aureus ATCC 29213 [3] = conditions: S. aureus ATCC 29213, QC organism; cited from earlier work
[4] = test system: vancomycin-intermediate Staphylococcus aureus (VISA); assay: Broth microdilution MIC (Example 12)
S. aureus ATCC 29213 [5] = assay: Broth microdilution MIC, ATCC QC organism (Example 12); assay type: cell-based, Staphylococcus aureus; conditions: S. aureus ATCC 29213, QC organism
Description: The in vitro activity of BisEDT and two additional bismuth-thiol investigational agents (MB-2B and MB-6) was determined for isolates of Escherichia coli, Klebsiella pneumoniae, Pseudomonas aeruginosa and Acinetobacter baumannii characterized for extended-spectrum β-lactamases (ESBL) and/or carbapenem resistance. In addition, vancomycin-intermediate Staphylococcus aureus (VISA) were evaluated. The majority of the isolates tested in the current study were multidrug-resistant (MDR) as defined by resistance to at least three different antibiotic classes. Susceptibility to the investigational compounds and relevant comparators was determined by broth microdilution conducted in accordance with guidelines from the Clinical and Laboratory Standards Institute (CLSI; 2,3).

Pseudomonas aeruginosa [6] = conditions: P. aeruginosa ATCC 27853, QC organism; cited from earlier work
Escherichia coli [7] = assay: Broth microdilution MIC (Example 12)
Pseudomonas aeruginosa [8] = assay: Broth microdilution MIC (Example 12)
Escherichia coli [9] = conditions: E. coli ATCC 25922, QC organism; cited from earlier work
Klebsiella pneumoniae = assay: Broth microdilution MIC (Example 12)
Acinetobacter baumannii = assay: Broth microdilution MIC (Example 12)
[10] = Staphylococcus aureus NRS 1 (hVISA)
[11] = Staphylococcus aureus NRS 24 (hVISA)

NCC[C@H](O)C(=O)N[C@@H]1C[C@H](N)[C@@H](O[C@H]2O[C@H](CN)[C@@H](O)[C@H](O)[C@H]2O)[C@H](O)[C@H]1O[C@H]1O[C@H](CO)[C@@H](O)[C@H](N)[C@H]1O [Amikacin]
1 to 2 µg/mL: Expected MIC: goal (E. coli ATCC 25922)
> 64 µg/mL: MIC ([2]; strain AU197, B. cenocepacia (B cepacia complex)) | MIC ([2]; strain BC5b, B. multivorans (B cepacia complex)) | MIC ([2]; strain BC15, B. cenocepacia (B cepacia complex)) | MIC ([2]; strain BC17, B. cepacia (B cepacia complex))
2 µg/mL: Expected MIC: goal (S. aureus ATCC 29213 [1])
1 to 4 µg/mL: Expected MIC: acceptable range (S. aureus ATCC 29213 [1])
0.5 to 4 µg/mL: Expected MIC: acceptable range (E. coli ATCC 25922)

CCCCCCCCCC(=O)NC(Cc1c[nH]c2ccccc12)C(=O)NC(CC(N)=O)C(=O)NC(CC(=O)O)C(=O)NC1C(=O)NCC(=O)NC(CCCN)C(=O)NC(CC(=O)O)C(=O)NC(C)C(=O)NC(CC(=O)O)C(=O)NCC(=O)NC(CO)C(=O)NC(C(C)CC(=O)O)C(=O)NC(CC(=O)c2ccccc2N)C(=O)OC1C (centres unmarked) [DAP]
0.25 µg/mL: MIC ([4]; Staphylococcus aureus NRS 2) | MIC ([4]; Staphylococcus aureus NRS 27)
2 µg/mL: MIC ([4]; Staphylococcus aureus NRS 13) | MIC ([4]; Staphylococcus aureus NRS 22)
(0.12-1) μg/mL: MIC, QC range (S. aureus ATCC 29213 [3])
1 µg/mL: MIC [4, 10] | MIC ([4]; Staphylococcus aureus NRS 3)
0.5 µg/mL: MIC ([4]; Staphylococcus aureus NRS 4) | MIC ([4]; Staphylococcus aureus NRS 18) | MIC [4, 11] | MIC (S. aureus ATCC 29213 [5])

C[C@H]1COc2c(N3CCN(C)CC3)c(F)cc3c(=O)c(C(=O)O)cn1c23 [LVX]
1 µg/mL: MIC (Acinetobacter baumannii; Acinetobacter baumannii NCTC 13304, OXA)
0.5 µg/mL: MIC (Pseudomonas aeruginosa [8]; P. aeruginosa ATCC 27853, QC organism)
0.015 µg/mL: MIC (Klebsiella pneumoniae; Klebsiella pneumoniae CDC 126, ESBL/KPC)
(0.008-0.06) μg/mL: MIC, QC range (Escherichia coli [9])
2 µg/mL: MIC (Acinetobacter baumannii; Acinetobacter baumannii CDC 311, OXA) | MIC (Acinetobacter baumannii; Acinetobacter baumannii CDC 312, OXA) | MIC (Acinetobacter baumannii; Acinetobacter baumannii CDC 313, ESBL/OXA)
>8 µg/mL: MIC (Escherichia coli [7]; Escherichia coli ATCC BAA-2471, NDM) | MIC (Escherichia coli [7]; Escherichia coli CDC 435, NDM) | MIC (Escherichia coli [7]; Escherichia coli CDC 451, KPC) | MIC (Escherichia coli [7]; Escherichia coli CDC 503, ESBL/NDM) | MIC (Pseudomonas aeruginosa [8]; Pseudomonas aeruginosa CDC 231, KPC/OXA) | MIC (Pseudomonas aeruginosa [8]; Pseudomonas aeruginosa CDC 246, NDM/OXA) | MIC (Pseudomonas aeruginosa [8]; Pseudomonas aeruginosa CDC 250, NDM/OXA) | MIC (Pseudomonas aeruginosa [8]; Pseudomonas aeruginosa CDC 457, VIM) | MIC (Pseudomonas aeruginosa [8]; Pseudomonas aeruginosa CDC 518, KPC/AmpC) | MIC ([4]; Staphylococcus aureus NRS 3) | MIC [4, 11] | MIC (Klebsiella pneumoniae; K. pneumoniae ATCC BAA-1705, QC organism) | MIC (Klebsiella pneumoniae; Klebsiella pneumoniae ATCC BAA-1705, ESBL/KPC) | MIC (Klebsiella pneumoniae; Klebsiella pneumoniae CDC 115, ESBL/KPC) | MIC (Klebsiella pneumoniae; Klebsiella pneumoniae CDC 120, ESBL/KPC) | MIC (Klebsiella pneumoniae; Klebsiella pneumoniae CDC 129, ESBL/KPC) | MIC (Klebsiella pneumoniae; Klebsiella pneumoniae CDC 135, ESBL/VIM) | MIC (Klebsiella pneumoniae; Klebsiella pneumoniae CDC 138, ESBL/NDM) | MIC (Acinetobacter baumannii; Acinetobacter baumannii CDC 273, ESBL/OXA)
8 µg/mL: MIC (Escherichia coli [7]; Escherichia coli CDC 118, ESBL/NDM) | MIC (Escherichia coli [7]; Escherichia coli MMX 5745, KPC) | MIC (Escherichia coli [7]; Escherichia coli MMX 5755, ESBL) | MIC (Escherichia coli [7]; Escherichia coli MMX 5758, ESBL) | MIC (Pseudomonas aeruginosa [8]; Pseudomonas aeruginosa CDC 230, VIM/OXA) | MIC (Pseudomonas aeruginosa [8]; Pseudomonas aeruginosa CDC 241, IMP/OXA) | MIC (Pseudomonas aeruginosa [8]; Pseudomonas aeruginosa CDC 439, IMP) | MIC (Pseudomonas aeruginosa [8]; Pseudomonas aeruginosa CDC 444, VIM) | MIC ([4]; Staphylococcus aureus NRS 22) | MIC ([4]; Staphylococcus aureus NRS 27) | MIC (Acinetobacter baumannii; Acinetobacter baumannii CDC 274, ESBL/OXA) | MIC (Acinetobacter baumannii; Acinetobacter baumannii CDC 277, ESBL/OXA) | MIC (Acinetobacter baumannii; Acinetobacter baumannii CDC 284, ESBL/OXA) | MIC (Acinetobacter baumannii; Acinetobacter baumannii CDC 307, OXA)
0.12 µg/mL: MIC (Pseudomonas aeruginosa [8]; Pseudomonas aeruginosa CDC 356, KPC) | MIC ([4]; Staphylococcus aureus NRS 13) | MIC (Klebsiella pneumoniae; Klebsiella pneumoniae MMX 9029, ESBL)
(0.06-0.5) μg/mL: MIC, QC range (S. aureus ATCC 29213 [3])
≤0.008 µg/mL: MIC (Escherichia coli [7]; E. coli ATCC 25922, QC organism) | MIC (Escherichia coli [7]; E. coli ATCC 35218, QC organism) | MIC (Escherichia coli [7]; Escherichia coli ATCC 35218, ESBL)
0.06 µg/mL: MIC (S. aureus ATCC 29213 [5])
4 µg/mL: MIC (Escherichia coli [7]; Escherichia coli CDC 114, ESBL/KPC) | MIC (Escherichia coli [7]; Escherichia coli MMX 5756, ESBL) | MIC [4, 10] | MIC ([4]; Staphylococcus aureus NRS 2) | MIC ([4]; Staphylococcus aureus NRS 4) | MIC ([4]; Staphylococcus aureus NRS 18) | MIC (Klebsiella pneumoniae; Klebsiella pneumoniae CDC 112, KPC) | MIC (Klebsiella pneumoniae; Klebsiella pneumoniae CDC 113, ESBL/KPC) | MIC (Klebsiella pneumoniae; Klebsiella pneumoniae CDC 158, ESBL/NDM/OXA) | MIC (Acinetobacter baumannii; Acinetobacter baumannii CDC 275, ESBL/OXA) | MIC (Acinetobacter baumannii; Acinetobacter baumannii CDC 308, ESBL/OXA)
(0.5-4) μg/mL: MIC, QC range (Pseudomonas aeruginosa [6])
0.25 µg/mL: MIC (Pseudomonas aeruginosa [8]; Pseudomonas aeruginosa CDC 516, KPC/AmpC)
